Patent US6605626B2, “Antithrombotic agents” (Eli Lilly and Company, priority 1997, dated 2003)

Compared with `CCNc1ccc(C(=O)Nc2ccc(OC)cc2)c(NC(=O)c2ccc(C(C)(C)C)cc2)c1` [Example 60a, 2-(4-tert-Butylbenzoylamino)-4-ethylamino-N-(4-methoxyphenyl)benzamide], `COc1ccc(NC(=O)c2ccccc2NC(=O)c2ccc(C(C)(C)C)cc2)cc1` [Example 89, 2-(4-tert-Butylbenzoylamino)-N-(4-methoxyphenyl)benzamide] is higher in melting point: 205 to 207.5 °C for the first, 208 to 210 °C for the second.

First: COc1ccc(C(=O)Nc2ccc(OC)cc2NC(=O)c2ccc(OC)cc2)cc1 [Example 155, 4-Methoxy-N^1,N^2-bis(4-methoxybenzoyl)-1,2-benzenediamine]
Second: COc1ccc(C(=O)Nc2cccc(O)c2NC(=O)c2ccc(OC)cc2)cc1 [Example 158, 2,3-bis[(4-Methoxybenzoyl)amino]phenol]
The melting point of the first is higher: 238 to 239 °C for the first, 208 to 209 °C for the second.
